Test results as given in patent US7951815B2, “Substituted 1,4,8-triazaspiro [4,5]decan-2-one compounds” (Gruenenthal GmbH, priority 2004, dated 2011).

Key:
male NMRI mice = assay: Analgesic test using the phenylquinone-induced writhing test on mice; type: in vivo; conditions: 10 mg/kg intravenous
Protocol: The analysis of analgesic activity is carried out using the phenylquinone-induced writhing assay in mice, modified as described in the article by I. C. Hendershot and J. Forsaith ((1959) in J. Pharmacol. Exp. Ther. 125, 237-240).
For the present purpose, male NMRI mice are used having a weight of from 25 to 30 g. Groups of 10 animals per substance dose receive, 10 minutes after an intravenous dose of test substances, an intraperitoneal administration of 0.3 ml/mouse of a 0.02% strength aqueous solution of phenylquinone (phenylbenzoquinone, obtainable from Sigma, Deisenhofen; solution produced with the addition of 5% of ethanol and storage in a water bath at 45° C.). The animals are placed individually in observation cages. Using a pushbutton counter, the number of pain-induced stretching movements (so-called writhing reactions=straightening of the body accompanied by stretching of the rear extremities) was counted over a period of from 5 to 20 minutes following the administration of phenylquinone. The control is provided by animals receiving only physiological saline. All substances are tested using the standard dosage of 10 mg/kg.

[1] = system: batrachotoxin (BTX) binding site of the sodium channel; assay: Affinity to the batrachotoxin (BTX) binding site of the sodium channel; conditions: rat cerebrocortex synaptosomes, test concentration not given
5-HT transporter = target: T1, 5-HT transporter (Rattus norvegicus, UniProt P31652); assay: Inhibition of 5-HT uptake in rat brain synaptosomes; type: biochemical; conditions: rat, 1 μM; for inhibition at 1 µM: read-out: Uptake 5-HT, % inhibition
T1 construct: synaptosomes of rat brain areas are freshly isolated; from tissue; host or cells: rat brain synaptosomes (P2 fraction) from marrow and pons

NA transporter = assay: Inhibition of noradrenaline uptake in rat brain synaptosomes; type: biochemical; conditions: Table III

T1 sequence (P31652 whole entry): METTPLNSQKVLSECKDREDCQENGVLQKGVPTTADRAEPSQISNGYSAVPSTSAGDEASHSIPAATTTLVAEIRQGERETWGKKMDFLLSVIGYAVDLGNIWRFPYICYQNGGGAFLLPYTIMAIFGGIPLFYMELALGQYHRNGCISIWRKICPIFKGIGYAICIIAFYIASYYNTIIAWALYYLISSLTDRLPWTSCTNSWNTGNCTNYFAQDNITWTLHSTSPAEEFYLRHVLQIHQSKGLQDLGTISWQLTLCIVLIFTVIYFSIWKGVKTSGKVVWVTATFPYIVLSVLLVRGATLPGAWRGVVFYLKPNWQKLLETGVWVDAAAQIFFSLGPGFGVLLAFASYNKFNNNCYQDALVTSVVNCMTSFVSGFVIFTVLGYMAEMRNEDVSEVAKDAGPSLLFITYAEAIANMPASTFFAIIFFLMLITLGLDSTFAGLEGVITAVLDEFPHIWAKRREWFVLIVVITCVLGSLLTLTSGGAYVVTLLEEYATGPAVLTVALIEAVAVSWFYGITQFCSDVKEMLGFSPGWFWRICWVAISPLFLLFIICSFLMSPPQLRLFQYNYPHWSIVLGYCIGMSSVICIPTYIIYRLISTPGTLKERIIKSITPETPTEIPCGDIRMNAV

SMILES	% Inhibition of the writhing reaction (Dosage in mg/kg intravenous) (male NMRI mice)	BTX inhibition ([1]; Table II)	Uptake 5-HT, rat, 1 μM, % inhibition (5-HT transporter; Table II) [%]	Uptake (NA), rat, 10 μM, % inhibition (NA transporter) [%]	BTX inhibition ([1]; Table III)	inhibition at 1 µM (5-HT transporter; Table III) [%]	Uptake 5-HT, rat, 1 μM, % inhibition (5-HT transporter; Table III) [%]
CCC(CC)C(=O)N1CCC2(CC1)N[C@@H](Cc1ccccc1)C(=O)N2Cc1ccc(F)cc1.Cl (racemic) [Example 31, 3-(S,R)-benzyl-8-(2-ethylbutyryl)-1-(4-fluorobenzyl)-1,4,8-triazaspiro[4,5]decan-2-one hydrochloride]	36 (10) %	61	34	–	–	–	–
CCC(CC)C(=O)N1CCC2(CC1)NC(=O)[C@H](Cc1ccccc1)N2.Cl [Example 2, 3-(S)-Benzyl-8-(2-ethylbutyryl)-1,4,8-triazaspiro[4,5]decan-2-one hydrochloride]	51 (10) %	–	–	–	–	–	–
Cl.O=C(c1ccc(C(F)(F)F)c(F)c1)N1CCC2(CC1)N[C@@H](Cc1ccccc1)C(=O)N2Cc1ccccc1 [Example 53, 1,3-(S)-dibenzyl-8-(3-fluoro-4-trifluoromethylbenzoyl)-1,4,8-triazaspiro[4,5]decan-2-one hydrochloride]	30 (10) %	48	–	–	–	–	–
Cl.O=C(COc1ccc(Cl)cc1)N1CCC2(CC1)N[C@@H](Cc1ccccc1)C(=O)N2Cc1ccccc1 [Example 55, 1,3-(S)-dibenzyl-8-[2-(4-chlorophenoxy)acetyl]-1,4,8-triazaspiro[4,5]decan-2-one hydrochloride]	45 (10) %	64	–	–	–	–	–
CN(C)c1cccc(C(=O)N2CCC3(CC2)NC(Cc2ccccc2)C(=O)N3Cc2ccccc2)c1 (stereo not shown) [Example 99, 1,3-Dibenzyl-8-(3-dimethylaminobenzoyl)-1,4,8-triazaspiro[4,5]decan-2-one]	–	–	–	42	66	79	–
C#CCN1C(=O)C(CC(C)C)NC12CCN(C(=O)COc1ccc(Cl)cc1)CC2 (stereo not shown) [Example 104, 8-[2-(4-Chlorophenoxy)acetyl]-3-isobutyl-1-prop-2-ynyl-1,4,8-triazaspiro[4,5]decan-2-one]	–	–	–	36	41	48	–
CC(C)CC1NC2(CCN(C(=O)c3cccc(N(C)C)c3)CC2)N(Cc2ccccc2C#N)C1=O (stereo not shown) [Example 111, 2-[8-(3-Dimethylaminobenzoyl)-3-isobutyl-2-oxo-1,4,8-triazaspiro[4,5]dec-1-ylmethyl]benzonitrile]	–	–	–	38	42	58	–
CC(C)CC1NC2(CCN(C(=O)c3cccnc3Cl)CC2)N(Cc2ccc(F)cc2)C1=O (stereo not shown) [Example 118, 8-(2-Chloropyridin-3-carbonyl)-1-(4-fluorobenzyl)-3-isobutyl-1,4,8-triazaspiro[4,5]decan-2-one]	–	–	–	30	44	38	–
CN1C(=O)C(Cc2ccccc2)NC12CCN(C(=O)CC(C)(C)C)CC2 (stereo not shown) [Example 126, 3-Benzyl-8-(3,3-dimethylbutyryl)-1-methyl-1,4,8-triazaspiro[4,5]decan-2-one]	–	–	–	44	34	–	–
CN1C(=O)C(Cc2ccccc2)NC12CCN(C(=O)COCc1ccccc1)CC2 (stereo not shown) [Example 141, 3-Benzyl-8-(2-benzyloxyacetyl)-1-methyl-1,4,8-triazaspiro[4,5]decan-2-one]	–	–	–	36	45	–	–
CCOC(=O)CN1C(=O)C(Cc2ccccc2)NC12CCN(C(=O)c1ccc(NC(C)=O)cc1)CC2 (stereo not shown) [Example 256, Ethyl [8-(4-acetylaminobenzoyl)-3-benzyl-2-oxo-1,4,8-triazaspiro[4,5]dec-1-yl]acetate]	–	–	–	57	48	94	–
CC(C)CC1NC2(CCN(C(=O)c3ccc4c(c3)OCO4)CC2)N(Cc2c(Cl)cccc2Cl)C1=O (stereo not shown) [Example 264, 8-(Benzo[1,3]dioxole-5-carbonyl)-1-(2,6-dichlorobenzyl)-3-isobutyl-1,4,8-triazaspiro[4,5]decan-2-one]	–	–	–	36	63	–	–
C=CCN1C(=O)C(C(C)C)NC12CCN(C(=O)c1ccc(-c3ccccc3)cc1)CC2 (stereo not shown) [Example 265, 1-Allyl-8-(biphenyl-4-carbonyl)-3-isopropyl-1,4,8-triazaspiro[4,5]decan-2-one]	–	–	–	32	34	–	–
CCOC(=O)CN1C(=O)C(Cc2ccccc2)NC12CCN(C(=O)c1ccc(-c3ccccc3)cc1)CC2 (stereo not shown) [Example 266, Ethyl [3-benzyl-8-(biphenyl-4-carbonyl)-2-oxo-1,4,8-triazaspiro[4,5]dec-1-yl]acetate]	–	–	–	38	57	94	–
CCOC(=O)CCC(=O)N1CCC2(CC1)NCC(=O)N2Cc1ccccc1F [Example 270, Ethyl 4-[1-(2-fluorobenzyl)-2-oxo-1,4,8-triazaspiro[4,5]dec-8-yl]-4-oxo-butanate]	–	–	–	37	33	31	–
COc1ccccc1C(=O)N1CCC2(CC1)NC(Cc1ccccc1)C(=O)N2Cc1ccccc1F (stereo not shown) [Example 274, 3-Benzyl-1-(2-fluorobenzyl)-8-(2-methoxybenzoyl)-1,4,8-triazaspiro[4,5]decan-2-one]	–	–	–	64	85	97	–
CCOC(=O)C(C)(C)C(=O)N1CCC2(CC1)NC(CC(C)C)C(=O)N2CCCCOC(C)=O (stereo not shown) [Example 278, Ethyl 2-[1-(4-acetoxybutyl)-3-isobutyl-2-oxo-1,4,8-triazaspiro[4,5]dec-8-yl]-1,1-dimethyl-2-oxo-acetate]	–	–	–	56	–	–	39
CCOc1ccccc1C(=O)N1CCC2(CC1)NCC(=O)N2Cc1ccccc1F [Example 280, 8-(2-Ethoxybenzoyl)-1-(2-fluorobenzyl)-1,4,8-triazaspiro[4,5]decan-2-one]	–	–	–	35	30	60	–
C=CCN1C(=O)C(CCSC)NC12CCN(C(=O)C1CC1)CC2 (stereo not shown) [Example 281, 1-Allyl-8-cyclopropanecarbonyl-3-(2-methylsulfanylethyl)-1,4,8-triazaspiro[4,5]decan-2-one]	–	–	–	30	–	56	–
C=CCCC(=O)N1CCC2(CC1)NCC(=O)N2Cc1ccccc1F [Example 287, 1-(2-Fluorobenzyl)-8-pent-4-enoyl-1,4,8-triazaspiro[4,5]decan-2-one]	–	–	–	41	32	41	–
C=CCN1C(=O)C(CCSC)NC12CCN(C(=O)c1cccnc1SC)CC2 (stereo not shown) [Example 290, 1-Allyl-3-(2-methylsulfanylethyl)-8-(2-methylsulfanylpyridin-3-carbonyl)-1,4,8-triazaspiro[4,5]decan-2-one]	–	–	–	31	30	–	–
Cc1cc(C(=O)N2CCC3(CC2)NC(CC(C)C)C(=O)N3Cc2c(Cl)cccc2Cl)c(C)o1 (stereo not shown) [Example 295, 1-(2,6-Dichlorobenzyl)-8-(2,5-dimethylfuran-3-carbonyl)-3-isobutyl-1,4,8-triazaspiro[4,5]decan-2-one]	–	–	–	36	63	–	–
CCOC(=O)CN1C(=O)C(CCSC)NC12CCN(C(=O)c1ccc(C(C)(C)C)cc1)CC2 (stereo not shown) [Example 297, Ethyl [8-(4-tert-butylbenzoyl)-3-(2-methylsulfanylethyl)-2-oxo-1,4,8-triazaspiro[4,5]dec-1-yl]acetate]	–	–	–	32	36	–	–
CSCCC1NC2(CCN(C(=O)c3cccnc3Oc3ccccc3)CC2)N(Cc2ccccc2[N+](=O)[O-])C1=O (stereo not shown) [Example 298, 3-(2-Methylsulfanylethyl)-1-(2-nitrobenzyl)-8-(2-phenoxypyridin-3-carbonyl)-1,4,8-triazaspiro[4,5]decan-2-one]	–	–	–	30	48	34	–
O=C(c1ccc2nonc2c1)N1CCC2(CC1)NCC(=O)N2Cc1ccccc1F [Example 304, 8-(Benzo[1,2,5]oxadiazole-5-carbonyl)-1-(2-fluorobenzyl)-1,4,8-triazaspiro[4,5]decan-2-one]	–	–	–	37	33	34	–
C=CCN1C(=O)C(CCSC)NC12CCN(C(=O)CCc1ccccc1)CC2 (stereo not shown) [Example 328, 1-Allyl-3-(2-methylsulfanylethyl)-8-(3-phenylpropionyl)-1,4,8-triazaspiro[4,5]decan-2-one]	–	–	–	33	–	32	–
CCOC(=O)C(C)(C)C(=O)N1CCC2(CC1)NC(CCSC)C(=O)N2Cc1ccccc1[N+](=O)[O-] (stereo not shown) [Example 331, Ethyl 1,1-dimethyl-2-[3-(2-methylsulfanylethyl)-1-(2-nitrobenzyl)-2-oxo-1,4,8-triazaspiro[4,5]dec-8-yl]-2-oxo-acetate]	–	–	–	38	46	–	58
